Experimental data from patent publication US12077503B2, “Substituted cyclic amides and their use as herbicides” (FMC CORPORATION, priority 2015, dated 2024).

Legend:
Type in all cases: in vivo
Kochia (Kochia scoparia) [1] = test: Test A preemergence; details: Bassia scoparia, pre-emergence, 240 h, read-out: Plant response rating, Kochia; for pest or weed control at 125 g/ha: 125 g ai/ha, preemergence, visual rating after approx. 10 d, 0 to 100 scale where 0 is no effect and 100 is complete control; for pest or weed control at 31 g/ha: Preemergence, 31 g ai/ha, 0 to 100 scale (0 no effect, 100 complete control)
Outline: (§1)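 In a loam soil and sand blend, planted seeds got a preemergence directed soil spray, and young plants at the one- to two-leaf stage, 2–10 cm high, got a postemergence application; ~10 d greenhouse hold; injury rated visually, 0 = none, 100 = complete control.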

[2] = tested on: barnyardgrass (Echinochloa crus-galli); test: Test A preemergence; details: Echinochloa crus-galli, pre-emergence, 240 h, read-out: Plant response rating, Barnyardgrass; for pest or weed control at 125 g/ha: 125 g ai/ha, preemergence, visual rating after approx. 10 d, 0 to 100 scale where 0 is no effect and 100 is complete control; for pest or weed control at 31 g/ha: Preemergence, 31 g ai/ha, 0 to 100 scale (0 no effect, 100 complete control)
Outline: as §1

[3] = tested on: giant foxtail (Setaria faberii); test: Test A preemergence; details: Setaria faberi, pre-emergence, 240 h, read-out: Plant response rating, Foxtail, Giant; for pest or weed control at 125 g/ha: 125 g ai/ha, preemergence, visual rating after approx. 10 d, 0 to 100 scale where 0 is no effect and 100 is complete control; for pest or weed control at 31 g/ha: Preemergence, 31 g ai/ha, 0 to 100 scale (0 no effect, 100 complete control)
Outline: as §1

[4] = tested on: pigweed (Amaranthus retroflexus); test: Test A preemergence; details: Amaranthus retroflexus, pre-emergence, 240 h, read-out: Plant response rating, Pigweed; for pest or weed control at 125 g/ha: 125 g ai/ha, preemergence, visual rating after approx. 10 d, 0 to 100 scale where 0 is no effect and 100 is complete control; for pest or weed control at 31 g/ha: Preemergence, 31 g ai/ha, 0 to 100 scale (0 no effect, 100 complete control)
[5] = tested on: ragweed (common ragweed, Ambrosia elatior); test: Test A preemergence; details: Ambrosia artemisiifolia, pre-emergence, 240 h, read-out: Plant response rating, Ragweed; for pest or weed control at 125 g/ha: 125 g ai/ha, preemergence, visual rating after approx. 10 d, 0 to 100 scale where 0 is no effect and 100 is complete control; for pest or weed control at 31 g/ha: Preemergence, 31 g ai/ha, 0 to 100 scale (0 no effect, 100 complete control)
Outline: as §1

[6] = tested on: ryegrass, Italian (Italian ryegrass, Lolium multiflorum); test: Test A preemergence; details: Lolium multiflorum, pre-emergence, 240 h, read-out: Plant response rating, Ryegrass, Italian; for pest or weed control at 125 g/ha: 125 g ai/ha, preemergence, visual rating after approx. 10 d, 0 to 100 scale where 0 is no effect and 100 is complete control; for pest or weed control at 31 g/ha: Preemergence, 31 g ai/ha, 0 to 100 scale (0 no effect, 100 complete control)
Outline: as §1

Kochia (Kochia scoparia) [7] = test: Test A postemergence; details: Bassia scoparia, post-emergence, 240 h; for pest or weed control at 125 g/ha: 125 g ai/ha, postemergence, visual injury rating after approximately 10 d, read-out: Kochia plant response rating (0 to 100 scale, 0 no effect, 100 complete control); for pest or weed control at 31 g/ha: Postemergence, 31 g ai/ha, visual injury after approx. 10 d, 0 to 100 scale, 0 no effect, 100 complete control, read-out: Plant response rating, Kochia
Outline: as §1

[8] = tested on: blackgrass (Alopecurus myosuroides); test: Test A postemergence; details: Alopecurus myosuroides, post-emergence, 240 h; for pest or weed control at 125 g/ha: 125 g ai/ha, postemergence, visual injury rating after approximately 10 d, read-out: Blackgrass plant response rating (0 to 100 scale, 0 no effect, 100 complete control); for pest or weed control at 31 g/ha: Postemergence, 31 g ai/ha, visual injury after approx. 10 d, 0 to 100 scale, 0 no effect, 100 complete control, read-out: Plant response rating, Blackgrass
Outline: as §1

[9] = tested on: giant foxtail (Setaria faberii); test: Test A postemergence; details: Setaria faberi, post-emergence, 240 h; for pest or weed control at 125 g/ha: 125 g ai/ha, postemergence, visual injury rating after approximately 10 d, read-out: Foxtail, Giant plant response rating (0 to 100 scale, 0 no effect, 100 complete control); for pest or weed control at 31 g/ha: Postemergence, 31 g ai/ha, visual injury after approx. 10 d, 0 to 100 scale, 0 no effect, 100 complete control, read-out: Plant response rating, Foxtail, Giant
Outline: as §1

[10] = tested on: ryegrass, Italian (Italian ryegrass, Lolium multiflorum); test: Test A postemergence; details: Lolium multiflorum, post-emergence, 240 h; for pest or weed control at 125 g/ha: 125 g ai/ha, postemergence, visual injury rating after approximately 10 d, read-out: Ryegrass, Italian plant response rating (0 to 100 scale, 0 no effect, 100 complete control); for pest or weed control at 31 g/ha: Postemergence, 31 g ai/ha, visual injury after approx. 10 d, 0 to 100 scale, 0 no effect, 100 complete control, read-out: Plant response rating, Ryegrass, Italian
Outline: as §1

[11] = tested on: barnyardgrass (Echinochloa crus-galli); test: Test B flooded paddy test; details: Echinochloa crus-galli, Flood, 250 g ai/ha; scale of 0 to 100 where 0 is no effect and 100 is complete control; read-out: Barnyardgrass plant response rating
Outline: (§2)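 2-leaf plants; pots flooded 3 cm over soil; cpd added to paddy water; depth held; greenhouse 13–15 d; visual rating vs controls, 0 = no effect, 100 = complete control.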

[12] = tested on: ducksalad (Heteranthera limosa); test: Test B flooded paddy test; details: Heteranthera limosa, Flood, 250 g ai/ha; scale of 0 to 100 where 0 is no effect and 100 is complete control; read-out: Ducksalad plant response rating
Outline: as §2

rice (Oryra sativa) = test: Test B flooded paddy test; details: Oryza sativa, Flood, 250 g ai/ha; scale of 0 to 100 where 0 is no effect and 100 is complete control; read-out: Rice plant response rating
Outline: as §2

[13] = tested on: sedge, umbrella (small-flower umbrella sedge, Cyperus difformis); test: Test B flooded paddy test; details: Cyperus difformis, Flood, 250 g ai/ha; scale of 0 to 100 where 0 is no effect and 100 is complete control; read-out: Sedge, Umbrella plant response rating
Outline: as §2

SMILES	pest or weed control at 125 g/ha (Kochia (Kochia scoparia) [1])	pest or weed control at 31 g/ha (Kochia (Kochia scoparia) [1])	pest or weed control at 125 g/ha [2]	pest or weed control at 31 g/ha [2]	pest or weed control at 125 g/ha [3]	pest or weed control at 31 g/ha [3]	pest or weed control at 125 g/ha [4]	pest or weed control at 31 g/ha [4]	pest or weed control at 125 g/ha [5]	pest or weed control at 31 g/ha [5]	pest or weed control at 125 g/ha [6]	pest or weed control at 31 g/ha [6]	pest or weed control at 125 g/ha (Kochia (Kochia scoparia) [7])	pest or weed control at 31 g/ha (Kochia (Kochia scoparia) [7])	pest or weed control at 125 g/ha [8]	pest or weed control at 31 g/ha [8]	pest or weed control at 125 g/ha [9]	pest or weed control at 31 g/ha [9]	pest or weed control at 125 g/ha [10]	pest or weed control at 31 g/ha [10]	further results
CSc1ccccc1NC(=O)[C@H]1C(=O)N(C)CC[C@@H]1c1cccc(OC(F)(F)F)c1 [Compound 809]	0%	0%	90%	90%	20%	0%	0%	0%	0%	0%	0%	0%	0%	0%	0%	0%	0%	0%	0%	0%	pest or weed control at 250 g/ha [11]: 0%; pest or weed control at 250 g/ha [12]: 0%; pest or weed control at 250 g/ha (rice (Oryra sativa)): 0%; pest or weed control at 250 g/ha [13]: 0%
CN1CC[C@H](c2ccc3c(c2)OC(F)(F)O3)[C@@H](C(=O)Nc2ccccc2C(F)(F)F)C1=O [Compound 811]	0%	0%	40%	0%	40%	0%	0%	0%	0%	0%	0%	0%	0%	0%	0%	0%	60%	0%	0%	0%	pest or weed control at 250 g/ha [11]: 20%; pest or weed control at 250 g/ha [12]: 40%; pest or weed control at 250 g/ha (rice (Oryra sativa)): 0%; pest or weed control at 250 g/ha [13]: 40%
CN1CC[C@H](c2ccc3c(c2)OC(F)(F)O3)[C@@H](C(=O)Nc2cccc(F)c2F)C1=O [Compound 812]	0%	0%	90%	70%	90%	80%	0%	0%	0%	0%	20%	0%	20%	0%	80%	40%	90%	70%	30%	0%	pest or weed control at 250 g/ha [11]: 85%; pest or weed control at 250 g/ha [12]: 90%; pest or weed control at 250 g/ha (rice (Oryra sativa)): 0%; pest or weed control at 250 g/ha [13]: 0%
CN1CC[C@H](c2ccc3c(c2)OC(F)(F)O3)[C@@H](C(=O)Nc2ccc(F)c(F)c2F)C1=O [Compound 813]	0%	0%	80%	20%	90%	70%	0%	0%	0%	0%	20%	0%	0%	0%	80%	30%	80%	70%	20%	0%	pest or weed control at 250 g/ha [11]: 70%; pest or weed control at 250 g/ha [12]: 100%; pest or weed control at 250 g/ha (rice (Oryra sativa)): 20%; pest or weed control at 250 g/ha [13]: 0%
